Measurements from PMC3508689 (Biochemistry, 2011).

Target: T1, human PPM1D catalytic domain (residues 1–420) (Homo sapiens, UniProt O15297)
T1 sequence (O15297 1-420): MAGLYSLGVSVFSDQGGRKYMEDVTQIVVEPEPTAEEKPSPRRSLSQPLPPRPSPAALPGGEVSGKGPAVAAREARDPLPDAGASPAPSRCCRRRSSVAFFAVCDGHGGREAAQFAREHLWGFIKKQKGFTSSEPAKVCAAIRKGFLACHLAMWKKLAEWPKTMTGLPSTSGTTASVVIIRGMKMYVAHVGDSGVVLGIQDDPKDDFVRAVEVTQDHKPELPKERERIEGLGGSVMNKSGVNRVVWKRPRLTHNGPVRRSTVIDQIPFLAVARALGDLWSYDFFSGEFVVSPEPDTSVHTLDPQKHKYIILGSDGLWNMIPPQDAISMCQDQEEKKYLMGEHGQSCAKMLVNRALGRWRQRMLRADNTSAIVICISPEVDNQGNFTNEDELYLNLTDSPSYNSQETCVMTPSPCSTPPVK
Assay type: biochemical
Details: cyclic peptide 25 μM, ATM substrate peptide 30 μM

Row | inhibitory activity against PPM1D (in words) | Substance
1 | did not show inhibitory activity | cyclo(F-F2Pab-I-pY-DDC)-amide [peptide 44]
2 | no significant inhibitory activity | cyclo[(D-Asp)-(D-Asp)-(D-pY)-(D-I)-(D-pS)-(D-F)-C]-amide [peptide 47]
